Measured values taken from patent US12485157B2, “Method of treating COVID-19” (Pfizer Inc., priority 2020, dated 2025).

Molecular target: SARS-CoV-2 3CL protease (Severe acute respiratory syndrome coronavirus 2 (2019-nCoV) (SARS-CoV-2), UniProt P0DTD1)
Assay: SARS-CoV-2 Coronavirus 3C Protease FRET Assay
Type: biochemical
Conditions: for Ki: read-out: 3CL Protease Geometric Mean Ki

With `COc1cccc2[nH]c(C(=O)N[C@@H](CC(C)C)C(=O)N[C@@H](C[C@@H]3CCNC3=O)C(=O)COC(=O)C(C)(C)C)cc12` [Example 2, (3S)-3-({N-[(4-methoxy-1H-indol-2-yl)carbonyl]-L-leucyl}amino)-2-oxo-4-[(3S)-2-oxopyrrolidin-3-yl]butyl pivalate] the Ki was 94.1 nM.

`COc1cccc2[nH]c(C(=O)N[C@@H](CC(C)C)C(=O)N[C@@H](C[C@@H]3CCNC3=O)C(=O)COC(C)=O)cc12` [Example 1, (3S)-3-({N-[(4-methoxy-1H-indol-2-yl)carbonyl]-L-leucyl}amino)-2-oxo-4-[(3S)-2-oxopyrrolidin-3-yl]butyl acetate] showed a Ki of 19.4 nM.

Work on `COc1cccc2[nH]c(C(=O)N[C@@H](CC(C)C)C(=O)N[C@@H](C[C@@H]3CCNC3=O)C(=O)COC(=O)c3ccc(F)cc3)cc12` [Example 5, (3S)-3-({N-[(4-methoxy-1H-indol-2-yl)carbonyl]-L-leucyl}amino)-2-oxo-4-[(3S)-2-oxopyrrolidin-3-yl]butyl 4-fluorobenzoate] yielded a Ki of 16.3 nM.

Work on `COc1cccc2[nH]c(C(=O)N[C@@H](CC(C)C)C(=O)N[C@@H](C[C@@H]3CCNC3=O)C(=O)COC(=O)c3ccc(C#N)cc3)cc12` [Example 6, (3S)-3-({N-[(4-methoxy-1H-indol-2-yl)carbonyl]-L-leucyl}amino)-2-oxo-4-[(3S)-2-oxopyrrolidin-3-yl]butyl 4-cyanobenzoate] yielded a Ki of 1.9 nM.

Compound `COc1cccc2[nH]c(C(=O)N[C@@H](CC(C)C)C(=O)N[C@@H](C[C@@H]3CCNC3=O)C(=O)COC(=O)c3ccc(Cl)cc3)cc12` [Example 8, (3S)-3-({N-[(4-methoxy-1H-indol-2-yl)carbonyl]-L-leucyl}amino)-2-oxo-4-[(3S)-2-oxopyrrolidin-3-yl]butyl 4-chlorobenzoate] has a Ki of 18.8 nM.

`COc1cccc2[nH]c(C(=O)N[C@@H](CC(C)C)C(=O)N[C@@H](C[C@@H]3CCNC3=O)C(=O)COC(=O)c3ccccc3C#N)cc12` [Example 15, (3S)-3-({N-[(4-methoxy-1H-indol-2-yl)carbonyl]-L-leucyl}amino)-2-oxo-4-[(3S)-2-oxopyrrolidin-3-yl]butyl 2-cyanobenzoate] gave a Ki of 0.4 nM.

In the case of `COc1cccc2[nH]c(C(=O)N[C@@H](CC(C)C)C(=O)N[C@@H](C[C@@H]3CCNC3=O)C(=O)CO)cc12` [PF-835231, reference compound], the “inhibition of SARS-CoV-2 3CLpro (fluorescent signal reduced)” value (FRET assay control inhibitor) is reported as “potent inhibitor”.

For `COc1cccc(OC)c1C(=O)OCC(=O)[C@H](C[C@@H]1CCNC1=O)NC(=O)[C@H](CC(C)C)NC(=O)c1cc2c(OC)cccc2[nH]1` [Example 12, (3S)-3-({N-[(4-methoxy-1H-indol-2-yl)carbonyl]-L-leucyl}amino)-2-oxo-4-[(3S)-2-oxopyrrolidin-3-yl]butyl 2,6-dimethoxybenzoate], the Ki was 15.7 nM.

With `COc1cccc2[nH]c(C(=O)N[C@@H](CC(C)C)C(=O)N[C@@H](C[C@@H]3CCNC3=O)C(=O)COC(=O)c3c(F)cccc3F)cc12` [Example 11, (3S)-3-({N-[(4-methoxy-1H-Indol-2-yl)carbonyl]-L-leucyl}amino)-2-oxo-4-[(3S)-2-oxopyrrolidin-3-yl]butyl 2,6-difluorobenzoate] the Ki was 1.3 nM.

Compound `COc1cccc2[nH]c(C(=O)N[C@@H](CC(C)C)C(=O)N[C@@H](C[C@@H]3CCNC3=O)C(=O)COC(=O)c3ccc(C#N)cc3F)cc12` [Example 14, (3S)-3-({N-[(4-methoxy-1H-indol-2-yl)carbonyl]-L-leucyl}amino)-2-oxo-4-[(3S)-2-oxopyrrolidin-3-yl]butyl 4-cyano-2-fluorobenzoate] has a Ki of 0.2 nM.

`COc1cccc2[nH]c(C(=O)N[C@@H](CC(C)C)C(=O)N[C@@H](C[C@@H]3CCNC3=O)C(=O)COC(=O)c3c(Cl)cccc3Cl)cc12` [Example 9, (3S)-3-({N-[(4-methoxy-1H-indol-2-yl)carbonyl]-L-leucyl}amino)-2-oxo-4-[(3S)-2-oxopyrrolidin-3-yl]butyl 2,6-dichlorobenzoate] was tested, and the Ki was 0.3 nM.

With `COc1cccc2[nH]c(C(=O)N[C@@H](CC(C)C)C(=O)N[C@@H](C[C@@H]3CCNC3=O)C(=O)COC(=O)c3ccccc3)cc12` [Example 3, (3S)-3-({N-[(4-methoxy-1H-indol-2-yl)carbonyl]-L-leucyl}amino)-2-oxo-4-[(3S)-2-oxopyrrolidin-3-yl]butyl benzoate] the Ki was 233 nM.

In the case of `COc1cccc2[nH]c(C(=O)N[C@@H](CC(C)C)C(=O)N[C@@H](C[C@@H]3CCNC3=O)C(=O)COC(=O)c3c(C)cccc3C)cc12` [Example 10, (3S)-3-({N-[(4-methoxy-1H-indol-2-yl)carbonyl]-L-leucyl}amino)-2-oxo-4-[(3S)-2-oxopyrrolidin-3-yl]butyl 2,6-dimethylbenzoate], the Ki is reported as 3.4 nM.

Compound `COc1ccc(C(=O)OCC(=O)[C@H](C[C@@H]2CCNC2=O)NC(=O)[C@H](CC(C)C)NC(=O)c2cc3c(OC)cccc3[nH]2)cc1` [Example 7, (3S)-3-({N-[(4-methoxy-1H-indol-2-yl)carbonyl]-L-leucyl}amino)-2-oxo-4-[(3S)-2-oxopyrrolidin-3-yl]butyl 4-methoxybenzoate] has a Ki of 33.4 nM.

Work on `COc1cccc2[nH]c(C(=O)N[C@@H](CC(C)C)C(=O)N[C@@H](C[C@@H]3CCNC3=O)C(=O)COC(=O)c3ccc(C)cc3)cc12` [Example 4, (3S)-3-({N-[(4-methoxy-1H-indol-2-yl)carbonyl]-L-leucyl}amino)-2-oxo-4-[(3S)-2-oxopyrrolidin-3-yl]butyl 4-methylbenzoate] yielded a Ki of 17.7 nM.
